In US8957049B2, “Inhibitors of fatty acid amide hydrolase” (Infinity Pharmaceuticals, Inc., priority 2008, dated 2015):

The compounds below were run against T1, human FAAH (Homo sapiens, UniProt O00519) (assay: Human FAAH biochemical inhibition assay (AMC arachidonoyl amide fluorescence)). Settings: Table A, read-out: Activity (Ki) of other boronic acids tested, Table A.
T1 construct: host or cells: COS-7 cells, transient transfection (FuGENE 6); 13,000 g membrane fraction solubilised in 1% Triton X-100
T1 sequence (O00519 1-579): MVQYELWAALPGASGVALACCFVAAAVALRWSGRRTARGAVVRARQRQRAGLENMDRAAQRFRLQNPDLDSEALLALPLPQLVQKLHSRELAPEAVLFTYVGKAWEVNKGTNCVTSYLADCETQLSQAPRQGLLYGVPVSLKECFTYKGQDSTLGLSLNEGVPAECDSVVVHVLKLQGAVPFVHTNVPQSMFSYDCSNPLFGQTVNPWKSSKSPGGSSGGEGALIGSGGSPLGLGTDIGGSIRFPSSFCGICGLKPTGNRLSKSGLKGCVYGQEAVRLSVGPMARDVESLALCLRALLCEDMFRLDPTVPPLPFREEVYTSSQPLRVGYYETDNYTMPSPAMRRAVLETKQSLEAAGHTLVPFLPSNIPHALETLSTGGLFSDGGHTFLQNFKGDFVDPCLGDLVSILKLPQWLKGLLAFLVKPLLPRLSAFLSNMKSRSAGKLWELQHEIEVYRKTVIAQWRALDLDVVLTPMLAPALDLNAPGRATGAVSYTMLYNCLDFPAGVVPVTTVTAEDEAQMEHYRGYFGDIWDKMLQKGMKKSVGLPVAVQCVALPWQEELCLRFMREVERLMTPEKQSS
Description: Exemplary compounds are set forth in the Examples provided below. Compounds were assayed as inhibitors of human FAAH using the method described in detail in Example 286.
The following assays may be used to determine the inhibition of FAAH by the compounds of the present invention: (1) a fluorescence-based assay for fatty acid amide hydrolase compatible with high-throughput screening as described in Manjunath et al., Analytical Biochemistry (2005) 343:143-151; and (2) a high-throughput screening for the discovery of inhibitors of fatty acid amide hydrolase using a microsome-based fluorescent assay. Wang et al., Biomolecular Screening (2006) 1-9.
COS-7 cells were split the day before, 1:5 into 150 mm×25 mm cell culture dishes (Corning Inc., Cat. No. 430599). Transient transfection took place at 30-40% confluency according to FuGENE 6 Transfection Reagent (Roche, Cat. No. 11814 443 001).
The FuGENE transfection 6 reagent (45 uL) was added to 1410 μL of media (DMEM, serum free without pen/strep) in a 15 mL conical tube and incubated at room temp for 5 minutes, followed by the addition of FAAH plasmid DNA (15 μg) (OriGene Cat. No. TC119221, Genbank Accession No. NM_001441.1, 0.67 ug/uL) and a further incubation of 15 minutes at room temperature. The resulting solution was added into one dish of 30-40% confluent COS-7 cells in a drop-wise manner. The COS-7 cell dish was subsequently incubated for 48 hours. The cells are then harvested.
Media was aspirated from the dishes and the cells rinsed with 10 mL PBS. The PBS was removed and 3 mL of PBS added to the dish. The dish was scraped to resuspend the cells, and the subsequent cell suspension collected into a 15 mL conical tube. The cells were pelleted by centrifugation at 1200 rpm for 5 minutes in a bench top centrifuge. PBS was removed and the cell pellet snap frozen in liquid nitrogen and stored at −80° C.
COS-7 Cells—FAAH Purification: • (1) Fractionation: Frozen cell pellets from transient transfections were thawed on ice and resuspended in 12.5 mM Hepes pH 8.0, 100 mM NaCl, 1 mM EDTA (10 mL/0.2 g cell pellet). The pellets were dounce homogenized and then sonicated to produce cell extract. The cell extract was subsequently centrifuged at 1000 g to remove cellular debris. The pellet was discarded and the supernatant centrifuged at 13,000 g for 20 minutes. The pellet contained membrane bound FAAH. The supernatant was discarded and the pellet resolubilized. • (2) Re-solubilization: The fraction of interest, (13,000 g, membrane fraction) was re-suspended in 2.3 mL re-suspension buffer (20 mM Hepes pH 7.8, 10% v/v Glycerol, 1 mM EDTA, 1% Triton X-100) and the sample incubated on ice for 1 hour and then centrifuged to remove any particulate matter. The supernatant containing solubilized human FAAH was aliquoted and snap frozen in liquid nitrogen and stored at −80° C. until use. • (3) Characterization: Protein Concentration determined by Bradford assay. • SDS gel and Western blot to confirm presence of FAAH • FAAH activity assay • Km determination—96-well assay • Linear dependence—96-well assay • Standard compound Ki determination—384-well assay
Rat FAAH biochemical assays were carried out in a 96 well flat bottom black non-treated polystyrene plates (Corning Costar Catalogue #3915). FAAH reaction buffer: 50 mM Hepes (pH 7.5), 1 mM EDTA, 0.2% Triton X-100. FAAH substrate—AMC Arachidonoyl Amide (Cayman Chemicals Company, Catalog #10005098). The reaction was read in an Envision microtiter plate reader [Excitation filter 355 nm (40 nm bandpass); Emmision filter 460 nm (25 nm bandpass)]. The raw fluorescence was plotted on the y axis and the inhibitor concentration on the x axis to give a dose response inhibition curve. The data was fitted to a single site competitive inhibition equation, fixing the Km for the rat and human enzyme to 12 μM and 9 μM respectively. […]

Row | Compound | Ki [nM]
1 | OCCCc1ccc(B(O)O)cc1 | 100 to 1000
2 | O=C(NCCCO)c1ccc(B(O)O)cc1 | > 1000
3 | OB(O)c1ccc(C(F)(F)F)nc1 | 100 to 1000
4 | O=C(O)CCc1ccc(B(O)O)cc1 | > 1000
5 | OB(O)c1ccc(-c2ccc(F)cc2)nc1 | 10 to 100
6 | Cc1cc(B(O)O)cnc1N1CCOCC1 | 100 to 1000

Same assay, conditions: class given in each Example, read-out: Activity (Ki, inhibition of human FAAH)

Row | Compound | Ki [nM]
7 | OB(O)c1csc(-c2nnc(-c3ccccc3)o2)c1 [Compound 61] | 10 to 100
8 | OB(O)c1ccc2nc(-c3ccccc3)c(Br)n2c1 [Compound 317] | ≤ 10
9 | O=Cc1cc(OCCc2ccccc2)ccc1B(O)O [Compound 98] | ≤ 10
10 | OB(O)c1ccc(-c2nnc(-c3cccc(C(F)(F)F)c3)o2)cc1 [Compound 47] | ≤ 10
11 | OB(O)c1ccc(-c2nnc(-c3cncc(F)c3)o2)cc1 [Compound 41] | 10 to 100
12 | Cn1cncc1-c1nnc(-c2cc(OCCc3ccccc3)ccc2B(O)O)o1 [Compound 268] | 10 to 100
13 | OB(O)c1ccc(-c2nnc(-c3ccccc3)s2)cc1 [Compound 62] | ≤ 10
14 | CCOCc1nnc(-c2ccc(B(O)O)cc2)o1 [Compound 74] | 10 to 100
15 | CCCc1nnc(-c2ccccc2B(O)O)o1 [Compound 13] | > 1000
16 | CCCCCC1(C)CC(c2ccc(B(O)O)cc2)=NO1 (centres unmarked) [Compound 162] | ≤ 10
17 | CCCc1nnc(-c2cc(OCCc3ccccc3)ccc2B(O)O)o1 [Compound 17] | ≤ 10
18 | CCCCCc1nnc(-c2ccccc2B(O)O)o1 [Compound 281] | > 1000
19 | OB(O)c1cc2oc(CCc3ccccc3)nc2cc1F [Compound 253] | ≤ 10
20 | OB(O)c1ccc([C@H]2OC[C@H](c3ccccc3)O2)cc1 [Compound 179] | ≤ 10
21 | CCCc1nnc(-c2ccsc2B(O)O)o1 [Compound 72] | > 1000
22 | CN(C)C(=O)/C=C/c1cc(OCCc2ccccc2)ccc1B(O)O [Compound 103] | 10 to 100
23 | OB1c2cc3c(cc2C=NN1Cc1ccccc1)OCO3 [Compound 254] | > 1000
24 | OB(O)c1ccc2cn(Cc3ccccc3)nc2c1 [Compound 217] | ≤ 10
25 | COc1cccc(-c2nnc(-c3ccc(B(O)O)cc3)o2)c1OC [Compound 44] | ≤ 10
26 | OB(O)c1ccc(-c2nnc(Cc3ccccc3)o2)cc1 [Compound 70] | ≤ 10
27 | OB(O)c1cccc2cccc(COc3cccc(F)c3)c12 [Compound 151] | > 1000

Row | Compound | Ki [nM]
28 | O=C(c1ccccc1)c1ccc2cc(B(O)O)ccc2n1 [Compound 319] | ≤ 10
29 | OB(O)c1ccc(-c2cc(-c3cccnc3)on2)cc1 [Compound 166] | ≤ 10
30 | OB(O)c1ccc(-c2nnc(-c3ccccc3)o2)c(C(F)(F)F)c1 [Compound 81] | 100 to 1000
31 | OB(O)c1ccc2nc(CCc3ccccc3)oc2c1 [Compound 243] | ≤ 10
32 | OB(O)c1ccc([C@H]2OC[C@@H](c3ccccc3)CO2)cc1F [Compound 174] | ≤ 10
33 | O=C(CCB(O)O)NCCc1ccccc1 [Compound 321] | 100 to 1000
34 | OB(O)c1ccc([C@H]2OC[C@H](c3ccccc3)CO2)cc1F [Compound 173] | ≤ 10
35 | CCCCCc1nnc(-c2ccc(B(O)O)cc2)o1 [Compound 30] | ≤ 10
36 | OB(O)c1ccc2oc(CCc3ccccc3)nc2c1 [Compound 242] | ≤ 10
37 | CC(C)c1ccc(CN2CCC(Cc3nc4ccc(B(O)O)cc4o3)CC2)cc1 [Compound 301] | 10 to 100
38 | OB(O)c1ccc([C@H]2OC[C@H](c3ccccc3)CO2)cc1 [Compound 175] | ≤ 10
39 | O=C(/C=C/c1cc(OCCc2ccccc2)ccc1B(O)O)NCc1cccnc1 [Compound 287] | > 1000
40 | OB(O)c1ccc(C2CC(c3ccccc3)=NO2)cc1 (centres unmarked) [Compound 152] | ≤ 10
41 | CCC(C)CCc1nnc(-c2ccc(B(O)O)cc2)o1 (centres unmarked) [Compound 32] | ≤ 10
42 | CCCCCc1nnc(-c2ccc(B(O)O)c(F)c2)o1 [Compound 26] | ≤ 10
43 | OB(O)c1ccc(Cn2cc(-c3ccccc3)nn2)cc1 [Example 122] | 10 to 100
44 | Cc1nc(-c2nnc(-c3cc(OCCc4ccccc4)ccc3B(O)O)o2)cs1 [Compound 269] | 100 to 1000
45 | OB(O)c1ccc2nc(Oc3ccccn3)ccc2c1 [Compound 215] | ≤ 10
46 | OB(O)c1ccc(-c2nnc(Cc3ccccc3)o2)s1 [Compound 55] | 10 to 100
47 | OB(O)c1ccc(-c2nnc(CCC3CCCCC3)o2)cc1 [Compound 36] | ≤ 10
48 | CC(C)(O)c1nnc(-c2ccc(B(O)O)cc2)o1 [Compound 73] | 10 to 100

Row | Compound | Ki [nM]
49 | OB(O)c1ccc(-c2cn(-c3ccccc3)nn2)cc1 [Compound 130] | 10 to 100
50 | COc1cccc(-c2nnc(-c3ccc(B(O)O)cc3)o2)c1 [Compound 66] | ≤ 10
51 | CN(CCc1ccc(B(O)O)c(F)c1)S(=O)(=O)c1ccccc1 [Compound 312] | ≤ 10
52 | O=C(CCc1ccccc1)N1CCC(Cc2nc3ccc(B(O)O)cc3o2)CC1 [Compound 306] | ≤ 10
53 | O=C(/C=C/c1ccccc1B(O)O)NCc1ccccc1 [Compound 112] | 100 to 1000
54 | CN(C)c1cccc(Oc2ccc3cc(B(O)O)ccc3n2)c1 [Compound 194] | ≤ 10
55 | COc1cccc(Oc2ccc3cc(B(O)O)ccc3n2)c1 [Compound 189] | ≤ 10
56 | OB(O)c1ccc(Cc2nnc(-c3ccccc3)o2)cc1 [Compound 64] | 10 to 100
57 | OB(O)c1ccc2c(cnn2Cc2ccccc2)c1 [Compound 316] | ≤ 10
58 | CCOc1nnc(-c2ccccc2B(O)O)o1 [Compound 286] | > 1000
59 | COc1ccc2c(c1)B(O)N(Cc1ccccc1)N=C2 [Compound 255] | > 1000
60 | OB(O)c1ccc(-n2nncc2-c2ccccc2)cc1F [Compound 142] | 100 to 1000
61 | O=C(/C=C/c1cc(OCCc2ccccc2)ccc1B(O)O)NCc1ccco1 [Compound 288] | > 1000
62 | OB(O)c1ccc(OCc2ccccc2)cc1/C=N/OCc1ccccc1 [Compound 115] | 10 to 100
63 | [O-]/[N+](=C\c1cc(OCc2ccccc2)ccc1B(O)O)Cc1ccccc1 [Compound 106] | 100 to 1000
64 | CC(C)(C)OC(=O)Nc1cccc(NC(=O)/C=C/c2ccccc2B(O)O)c1 [Compound 113] | > 1000
65 | COC(=O)CCc1cc(OCCc2ccccc2)ccc1B(O)O [Compound 102] | 10 to 100
66 | Cc1cc2cc(B(O)O)ccc2nc1Oc1ccccc1 [Compound 210] | ≤ 10
67 | Cn1ccc2c(-c3nnc(-c4ccc(B(O)O)cc4)o3)cccc21 [Compound 51] | ≤ 10
68 | OB(O)c1ccc(-c2nnc(-c3ccc4c(c3)OCO4)o2)cc1 [Compound 45] | ≤ 10
